Measurements from patent publication US20240132521A1, “COMPOUNDS AND METHODS FOR MODULATING HER2” (Iambic Therapeutics, Inc., priority 2022, published 2024).

What was measured:
Format in all cases: cell-based
BaF3_HER2WT cells = BaF3_HER2WT cells (Homo sapiens, UniProt P04626); assay: Cell growth inhibition assay (CellTiterGlo), BaF3_HER2WT; conditions: 3-day treatment, CellTiterGlo, read-out: Cell growth inhibition activity, HER2 WT
BaF3_HER2YVMA cells = BaF3_HER2YVMA cells (Homo sapiens, UniProt P04626, DUP772-775, cells depend on it); assay: Cell growth inhibition assay (CellTiterGlo), BaF3_HER2YVMA; conditions: 3-day treatment, CellTiterGlo, read-out: Cell growth inhibition activity, HER2 - YVMA
BaF3_HER2YVMA cells, sequence (P04626 with tags, fused parts or gaps DUP772-775): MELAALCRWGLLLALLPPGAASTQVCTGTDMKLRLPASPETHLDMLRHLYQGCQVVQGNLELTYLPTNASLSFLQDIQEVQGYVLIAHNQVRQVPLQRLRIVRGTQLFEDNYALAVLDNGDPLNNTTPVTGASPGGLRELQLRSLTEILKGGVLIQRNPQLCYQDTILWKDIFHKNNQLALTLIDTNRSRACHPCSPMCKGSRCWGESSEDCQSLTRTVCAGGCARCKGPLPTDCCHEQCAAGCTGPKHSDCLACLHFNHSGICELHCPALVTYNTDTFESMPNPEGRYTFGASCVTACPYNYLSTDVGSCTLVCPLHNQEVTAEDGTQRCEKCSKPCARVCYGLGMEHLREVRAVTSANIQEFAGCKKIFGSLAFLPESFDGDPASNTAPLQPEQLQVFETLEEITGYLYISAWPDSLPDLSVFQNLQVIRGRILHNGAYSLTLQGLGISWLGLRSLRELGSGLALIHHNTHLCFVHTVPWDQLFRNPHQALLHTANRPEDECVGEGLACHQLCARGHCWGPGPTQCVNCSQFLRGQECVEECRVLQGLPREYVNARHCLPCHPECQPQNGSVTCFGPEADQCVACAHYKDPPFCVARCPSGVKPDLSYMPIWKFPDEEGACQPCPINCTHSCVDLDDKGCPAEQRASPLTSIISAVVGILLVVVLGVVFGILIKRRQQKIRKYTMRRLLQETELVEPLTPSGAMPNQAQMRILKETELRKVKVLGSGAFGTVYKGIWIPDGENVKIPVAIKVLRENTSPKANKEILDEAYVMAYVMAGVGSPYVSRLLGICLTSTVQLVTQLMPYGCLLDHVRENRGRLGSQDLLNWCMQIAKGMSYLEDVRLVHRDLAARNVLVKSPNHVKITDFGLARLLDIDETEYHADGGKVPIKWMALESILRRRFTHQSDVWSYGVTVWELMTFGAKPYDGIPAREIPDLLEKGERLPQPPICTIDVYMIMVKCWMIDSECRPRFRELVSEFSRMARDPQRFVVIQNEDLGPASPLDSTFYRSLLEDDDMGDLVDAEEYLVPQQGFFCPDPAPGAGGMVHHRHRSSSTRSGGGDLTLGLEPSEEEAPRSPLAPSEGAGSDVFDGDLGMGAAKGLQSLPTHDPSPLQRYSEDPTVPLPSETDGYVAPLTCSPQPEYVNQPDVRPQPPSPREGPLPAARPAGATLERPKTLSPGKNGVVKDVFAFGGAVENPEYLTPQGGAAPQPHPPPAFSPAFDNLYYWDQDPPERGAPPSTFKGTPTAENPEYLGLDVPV

BaF3_EGFRWT cells = BaF3_EGFRWT cells (Homo sapiens, UniProt P00533); assay: Cell growth inhibition assay (CellTiterGlo), BaF3_EGFRWT; conditions: 3-day treatment, CellTiterGlo, read-out: Cell growth inhibition activity, EGFR WT
BaF3_EGFRWT cells, sequence (P00533 whole entry, change not shown): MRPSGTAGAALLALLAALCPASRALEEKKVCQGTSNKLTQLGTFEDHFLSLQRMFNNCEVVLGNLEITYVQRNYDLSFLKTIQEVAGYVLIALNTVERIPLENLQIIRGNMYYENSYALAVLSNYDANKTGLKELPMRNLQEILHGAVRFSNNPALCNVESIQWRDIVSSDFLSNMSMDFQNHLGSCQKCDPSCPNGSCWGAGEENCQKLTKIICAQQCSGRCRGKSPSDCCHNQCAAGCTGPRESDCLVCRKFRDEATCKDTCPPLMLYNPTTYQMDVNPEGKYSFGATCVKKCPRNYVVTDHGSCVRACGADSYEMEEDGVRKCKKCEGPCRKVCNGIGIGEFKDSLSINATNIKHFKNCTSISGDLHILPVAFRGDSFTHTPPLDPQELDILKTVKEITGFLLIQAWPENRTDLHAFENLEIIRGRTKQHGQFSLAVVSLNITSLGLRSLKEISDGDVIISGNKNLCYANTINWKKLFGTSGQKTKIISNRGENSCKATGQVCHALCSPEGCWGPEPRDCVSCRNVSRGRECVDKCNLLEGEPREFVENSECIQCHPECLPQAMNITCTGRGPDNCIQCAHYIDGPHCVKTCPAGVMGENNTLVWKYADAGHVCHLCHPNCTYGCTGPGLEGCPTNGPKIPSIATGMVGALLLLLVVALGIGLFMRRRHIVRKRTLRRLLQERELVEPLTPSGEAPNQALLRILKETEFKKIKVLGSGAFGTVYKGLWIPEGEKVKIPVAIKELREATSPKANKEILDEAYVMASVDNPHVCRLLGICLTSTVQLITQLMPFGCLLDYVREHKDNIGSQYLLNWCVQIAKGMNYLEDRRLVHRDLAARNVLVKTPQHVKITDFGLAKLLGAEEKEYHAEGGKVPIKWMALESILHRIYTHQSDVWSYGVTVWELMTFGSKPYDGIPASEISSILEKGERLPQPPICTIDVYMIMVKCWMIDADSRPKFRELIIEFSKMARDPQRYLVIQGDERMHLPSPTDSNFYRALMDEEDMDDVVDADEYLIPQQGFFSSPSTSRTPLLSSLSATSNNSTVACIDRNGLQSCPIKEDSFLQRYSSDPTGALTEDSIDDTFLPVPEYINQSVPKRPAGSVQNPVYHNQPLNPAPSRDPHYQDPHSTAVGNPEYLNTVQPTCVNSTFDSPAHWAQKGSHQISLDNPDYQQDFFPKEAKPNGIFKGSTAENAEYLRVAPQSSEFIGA

BaF3_HER2WT cells, sequence (P04626 whole entry, change not shown): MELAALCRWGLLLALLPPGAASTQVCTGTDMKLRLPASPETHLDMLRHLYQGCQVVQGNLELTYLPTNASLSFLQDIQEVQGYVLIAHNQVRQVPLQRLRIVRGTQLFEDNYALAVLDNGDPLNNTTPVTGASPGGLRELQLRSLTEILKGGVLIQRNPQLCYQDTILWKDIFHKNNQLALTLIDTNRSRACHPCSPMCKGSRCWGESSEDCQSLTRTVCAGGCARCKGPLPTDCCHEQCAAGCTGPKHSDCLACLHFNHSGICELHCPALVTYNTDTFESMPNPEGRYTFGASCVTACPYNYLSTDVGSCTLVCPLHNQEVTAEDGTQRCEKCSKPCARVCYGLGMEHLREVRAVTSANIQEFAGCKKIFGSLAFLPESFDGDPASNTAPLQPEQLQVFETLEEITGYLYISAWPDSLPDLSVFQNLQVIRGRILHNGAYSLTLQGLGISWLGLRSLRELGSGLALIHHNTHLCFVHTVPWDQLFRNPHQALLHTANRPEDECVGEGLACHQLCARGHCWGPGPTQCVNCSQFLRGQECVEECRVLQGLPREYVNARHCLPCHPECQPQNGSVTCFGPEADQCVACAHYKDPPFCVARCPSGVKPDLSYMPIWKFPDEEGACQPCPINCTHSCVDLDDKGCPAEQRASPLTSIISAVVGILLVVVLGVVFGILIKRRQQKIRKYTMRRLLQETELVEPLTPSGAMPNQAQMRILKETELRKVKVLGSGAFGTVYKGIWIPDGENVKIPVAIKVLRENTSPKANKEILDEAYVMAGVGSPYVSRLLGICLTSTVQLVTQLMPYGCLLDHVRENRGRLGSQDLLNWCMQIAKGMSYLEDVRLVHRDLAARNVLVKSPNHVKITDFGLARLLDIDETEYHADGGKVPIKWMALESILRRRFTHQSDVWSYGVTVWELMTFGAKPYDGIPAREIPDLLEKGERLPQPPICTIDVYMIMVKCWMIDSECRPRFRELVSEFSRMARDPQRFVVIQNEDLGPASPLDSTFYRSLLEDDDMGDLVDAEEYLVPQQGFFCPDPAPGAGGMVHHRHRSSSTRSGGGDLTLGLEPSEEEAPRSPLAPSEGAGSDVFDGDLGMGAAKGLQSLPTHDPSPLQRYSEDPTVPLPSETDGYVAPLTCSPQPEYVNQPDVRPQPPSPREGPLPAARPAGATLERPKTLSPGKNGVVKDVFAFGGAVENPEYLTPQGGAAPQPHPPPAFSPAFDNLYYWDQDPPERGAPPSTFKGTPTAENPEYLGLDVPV

SMILES	GI50 (BaF3_HER2WT cells) [µM]	GI50 (BaF3_HER2YVMA cells) [µM]	GI50 (BaF3_EGFRWT cells) [µM]
C=CC(=O)NC1CCN(c2ccn3ncnc(Nc4ccc(Oc5ccn6ncnc6c5)c(C)c4)c23)C1 (stereo not drawn) [Example 79, N-(1-(4-((4-([1,2,4]triazolo[1,5-a]pyridin-7-yloxy)-3-methylphenyl)amino)pyrrolo[2,1-f][1,2,4]triazin-5-yl)pyrrolidin-3-yl)acrylamide]	< 0.2	0.2 to 0.5	1.5 to 5
Cc1cc(Nc2ncnn3ccc(N4CCCN(C(=O)/C=C/CN5CCOCC5)CC4)c23)ccc1Oc1ccn2ncnc2c1 [Example 80, (E)-1-(4-(4-((4-([1,2,4]triazolo[1,5-a]pyridin-7-yloxy)-3-methylphenyl)amino)pyrrolo[2,1-f][1,2,4]triazin-5-yl)-1,4-diazepan-1-yl)-4-morpholinobut-2-en-1-one]	< 0.2	1.5 to 5	1.5 to 5
Cc1cc(Nc2ncnn3ccc(N4CC(NC(=O)/C=C/CN5CCOCC5)C4)c23)ccc1Oc1ccn2ncnc2c1 [Example 81, (E)-N-(1-(4-((4-([1,2,4]triazolo[1,5-a]pyridin-7-yloxy)-3-methylphenyl)amino)pyrrolo[2,1-f][1,2,4]triazin-5-yl)azetidin-3-yl)-4-morpholinobut-2-enamide]	0.2 to 0.5	1.5 to 5	1.5 to 5
Cc1cc(Nc2ncnn3ccc(C4CN(C(=O)/C(C#N)=C/C(C)(C)C)C4)c23)ccc1Oc1ccn2ncnc2c1 [Example 89, (E)-2-(3-(4-((4-([1,2,4]triazolo[1,5-a]pyridin-7-yloxy)-3-methylphenyl)amino)pyrolo[2,1-f][1,2,4]triazin-5-yl)azetidine-1-carbonyl)-4,4-dimethylpent-2-enenitrile]	1.5 to 5	1.5 to 5	1.5 to 5
Cc1cc(Nc2ncnn3ccc(C4CN(C(=O)/C(F)=C/C5CCCN5C)C4)c23)ccc1Oc1ccn2ncnc2c1 (stereo not drawn) [Example 92, (Z)-1-(3-(4-((4-([1,2,4]triazolo[1,5-a]pyridin-7-yloxy)-3-methylphenyl)amino)pyrrolo[2,1-f][1,2,4]triazin-5-yl)azetidin-1-yl)-2-fluoro-3-(1-methylpyrrolidin-2-yl)prop-2-en-1-one]	< 0.2	< 0.2	1.5 to 5
Cc1cc(Nc2ncnn3ccc(C4CN(C(=O)/C=C/CN(C)C)C4)c23)ccc1Oc1ccn2cnnc2c1 [Example 134, (E)-1-(3-(4-((4-([1,2,4]triazolo[4,3-a]pyridin-7-yloxy)-3-methylphenyl)amino)pyrrolo[2,1-f][1,2,4]triazin-5-yl)azetidin-1-yl)-4-(dimethylamino)but-2-en-1-one]	0.2 to 0.5	1.5 to 5	1.5 to 5
C=CC(=O)N1C[C@H]2C[C@@H]1C[C@@H]2c1ccn2ncnc(Nc3ccc(Oc4ccn5ncnc5c4)c(C)c3)c12 [Example 141, 1-[(1S,4S,5S)-5-{4-[(3-methyl-4-{[1,2,4]triazolo[1,5-a]pyridin-7-yloxy}phenyl)amino]pyrrolo[2,1-f][1,2,4]triazin-5-yl}-2-azabicyclo[2.2.1]heptan-2-yl]prop-2-en-1-one]	0.2 to 0.5	0.5 to 1.5	1.5 to 5
CNC/C=C/C(=O)N1CC(c2ccn3ncnc(Nc4ccc(Oc5ccn6ncnc6c5)c(C)c4)c23)C1 [Example 151, (E)-1-(3-(4-((4-([1,2,4]triazolo[1,5-a]pyridin-7-yloxy)-3-methylphenyl)amino)pyrrolo[2,1-f][1,2,4]triazin-5-yl)azetidin-1-yl)-4-(methylamino)but-2-en-1-one]	< 0.2	< 0.2	1.5 to 5
Cc1cc(Nc2ncnn3cc(F)c(C4CCN(C(=O)/C=C/CN(C)C)CC4)c23)ccc1Oc1ccn2ncnc2c1 [Example 152, (E)-1-(4-(4-((4-([1,2,4]triazolo[1,5-a]pyridin-7-yloxy)-3-methylphenyl)amino)-6-fluoropyrrolo[2,1-f][1,2,4]triazin-5-yl)piperidin-1-yl)-4-(dimethylamino)but-2-en-1-one]	< 0.2	< 0.2	1.5 to 5

The remaining lines, values ahead:

GI50 (BaF3_HER2WT cells) [µM]	GI50 (BaF3_HER2YVMA cells) [µM]	GI50 (BaF3_EGFRWT cells) [µM]	SMILES
< 0.2	0.2 to 0.5	1.5 to 5	Cc1cc(Nc2ncnn3ccc(C4CN(C(=O)/C=C/CN5CCC(F)(F)C5)C4)c23)ccc1Oc1ccn2ncnc2c1 [Example 84, (E)-1-(3-(4-((4-([1,2,4]triazolo[1,5-a]pyridin-7-yloxy)-3-methylphenyl)amino)pyrrolo[2,1-f][1,2,4]triazin-5-yl)azetidin-1-yl)-4-(3,3-difluoropyrrolidin-1-yl)but-2-en-1-one]
< 0.2	< 0.2	1.5 to 5	Cc1cc(Nc2ncnn3ccc(C4CN(C(=O)/C=C/CN5CCC(F)(F)CC5)C4)c23)ccc1Oc1ccn2ncnc2c1 [Example 85, (E)-1-(3-(4-((4-([1,2,4]triazolo[1,5-a]pyridin-7-yloxy)-3-methylphenyl)amino)pyrrolo[2,1-f][1,2,4]triazin-5-yl)azetidin-1-yl)-4-(4,4-difluoropiperidin-1-yl)but-2-en-1-one]
< 0.2	< 0.2	1.5 to 5	COC1CN(C/C=C/C(=O)N2CCC(c3ccn4ncnc(Nc5ccc(Oc6ccn7ncnc7c6)c(C)c5)c34)CC2)C1 [Example 117, (E)-1-(4-(4-((4-([1,2,4]triazolo[1,5-a]217midazol-7-yloxy)-3-methylphenyl)amino)pyrrolo[2,1-f][1,2,4]triazin-5-yl)piperidin-1-yl)-4-(3-methoxyazetidin-1-yl)but-2-en-1-one]
< 0.2	< 0.2	1.5 to 5	COC1CCN(C/C=C/C(=O)N2CCC(c3ccn4ncnc(Nc5ccc(Oc6ccn7ncnc7c6)c(C)c5)c34)CC2)C1 (stereo not drawn) [Example 118, E-1-(4-(4-((4-([1,2,4]triazolo[1,5-a]217midazol-7-yloxy)-3-methylphenyl)amino)pyrrolo[2,1-f][1,2,4]triazin-5-yl)piperidin-1-yl)-4-(3-methoxypyrrolidin-1-yl)but-2-en-1-one]
< 0.2	< 0.2	1.5 to 5	Cc1cc(Nc2ncnn3ccc(C4CCN(C(=O)/C=C/CN5CC6COCC6C5)CC4)c23)ccc1Oc1ccn2ncnc2c1 (stereo not drawn) [Example 119, E-1-(4-(4-((4-([1,2,4]triazolo[1,5-a]218midazol-7-yloxy)-3-methylphenyl)amino)pyrrolo[2,1-f][1,2,4]triazin-5-yl)piperidin-1-yl)-4-(tetrahydro-1H-furo[3,4-c]pyrrol-5(3H)-yl)but-2-en-1-one]
< 0.2	< 0.2	1.5 to 5	Cc1cc(Nc2ncnn3ccc(C4CCN(C(=O)/C=C/CN5CCC6(COC6)C5)CC4)c23)ccc1Oc1ccn2ncnc2c1 [Example 120, E-1-(4-(4-((4-([1,2,4]triazolo[1,5-a]218midazol-7-yloxy)-3-methylphenyl)amino)pyrrolo[2,1-f][1,2,4]triazin-5-yl)piperidin-1-yl)-4-(2-oxa-6-azaspiro[3.4]octan-6-yl)but-2-en-1-one]
< 0.2	< 0.2	0.5 to 1.5	C=CC(=O)N1CCN(c2ccn3ncnc(Nc4ccc(Oc5ccc6c(c5)ncn6C)c(C)c4)c23)CC1 [Example 121, 1-(4-(4-((3-methyl-4-((1-methyl-1H-benzo[d]imidazol-5-yl)oxy)phenyl)amino)pyrrolo[2,1-f][1,2,4]triazin-5-yl)piperazin-1-yl)prop-2-en-1-one]
< 0.2	< 0.2	1.5 to 5	Cc1cc(Nc2ncnn3ccc(C4CCN(C(=O)/C=C/CN5CCC6(COC6)C5)CC4)c23)ccc1Oc1ccc2c(c1)ncn2C [Example 129, (E)-1-(4-(4-((3-methyl-4-((1-methyl-1H-benzo[d]imidazol-5-yl)-oxy)phenyl)amino)-pyrrolo[2,1-f][1,2,4]triazin-5-yl)piperidin-1-yl)-4-(2-oxa-6-azaspiro[3.4]octan-6-yl)but-2-en-1-one]
< 0.2	< 0.2	1.5 to 5	Cc1cc(Nc2ncnn3ccc(C4CCN(C(=O)/C=C/CN(C)C)CC4)c23)ccc1Oc1ccc2c(c1)ncn2C [Example 133, (E)-4-(dimethylamino)-1-(4-(4-((3-methyl-4-((1-methyl-1H-benzo[d]234midazole-5-yl)oxy)phenyl)amino)pyrrolo[2,1-f][1,2,4]triazin-5-yl)piperidin-1-yl)but-2-en-1-one]
1.5 to 5	1.5 to 5	1.5 to 5	Cc1cc(Nc2ncnn3ccc(C4CCN(C(=O)/C=C/C(=O)O)CC4)c23)ccc1Oc1ccn2ncnc2c1 [Example 142, (E)-4-(4-(4-((4-([1,2,4]triazolo[1,5-a]pyridin-7-yloxy)-3-methylphenyl)amino)pyrrolo[2,1-f][1,2,4]triazin-5-yl)piperidin-1-yl)-4-oxobut-2-enoic acid]
0.5 to 1.5	1.5 to 5	1.5 to 5	Cc1cc(Nc2ncnn3ccc(C4CCN(C(=O)/C=C/CN)CC4)c23)ccc1Oc1ccn2ncnc2c1 [Example 150, (E)-1-(4-(4-((4-([1,2,4]triazolo[1,5-a]pyridin-7-yloxy)-3-methylphenyl)amino)pyrrolo[2,1-f][1,2,4]triazin-5-yl)piperidin-1-yl)-4-aminobut-2-en-1-one]
1.5 to 5	1.5 to 5	1.5 to 5	CNC/C=C/C(=O)N1CC(c2ccn3ncnc(Nc4ccc(Oc5ccc6c(c5)ncn6C)c(C)c4)c23)C1 [Example 153, (E)-1-(3-(4-((3-methyl-4-((1-methyl-1H-benzo[d]imidazol-5-yl)oxy)phenyl)amino)pyrrolo[2,1-f][1,2,4]triazin-5-yl)azetidin-1-yl)-4-(methylamino)but-2-en-1-one]
< 0.2	< 0.2	1.5 to 5	Cc1cc(Nc2ncnn3ccc(C4CCN(C(=O)/C=C/CO)CC4)c23)ccc1Oc1ccn2ncnc2c1 [Example 154, (E)-1-(4-(4-((4-([1,2,4]triazolo[1,5-a]pyridin-7-yloxy)-3-methylphenyl)amino)pyrrolo[2,1-f][1,2,4]triazin-5-yl)piperidin-1-yl)-4-hydroxybut-2-en-1-one]
